Here are results for 19 molecules from PubChem BioAssay (NCI).

“And” between values parts separate entries of the source, which are not always exact repeats. Equal values may be shown once.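 Cultured in 96-well plates, cells were exposed to test compound for 48 hours across five concentrations. GI50 is the concentration that inhibits growth by half. TGI: concentration producing complete growth inhibition.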

Holding throughout (assay): growth of human tumour cells (NCI), 48 h
Assay [1] relates to MCF7 breast.
For assay [2], the system named is M14 melanoma.
The test system of assay [3] is SW-620 colon.
For assay [4], the system named is MALME-3M melanoma.
For assay [5], the system named is HOP-92 NSCLC.
Assay [6] relates to EKVX NSCLC.
Assay [7] has as its system HS 578T breast.
The test system of assay [8] is RPMI-8226 leukemia.
Assay [9] relates to NCI/ADR-RES ovarian.
For assay [10], the system named is DMS 273 small cell lung.
For assay [11], the system named is XF 498 CNS.

In the case of `CCCCCC(=O)OC[n+]1ccc(-c2c(COC(=O)NC(C)C)c(COC(=O)NC(C)C)c3n2CCC3)cc1`, the TGI in assay [1], in assay [2], in assay [3], in [4], in assay [5] and in assay [6] was above 100 µM each time. Moreover, the TGI in assay [7], in assay [8] and in assay [9] was above 100 µM throughout.

Take `CCOC(=O)C(C(=O)OCC)C(=S)NC1OC(COC(C)=O)C(OC(C)=O)C(OC(C)=O)C1OC(C)=O` (stereo not drawn): the TGI in assay [1], in [2], in assay [3], in assay [4], in assay [5] and in assay [6] was above 100 µM in each case. Further, the TGI in assay [7], in assay [8] and in assay [9] was above 100 µM each time.

Take `C=C1[C@@H]2CCC(C)(C)[C@H]1CCC(=O)[C@@H]2C(=O)OC`: the TGI in assay [10], in assay [2], in [11], in assay [3], in [4] and in assay [6] was above 100 µM each time. In addition, in assay [8], the TGI was above 100 µM.

Turning to `O=C1N(c2ccccc2)N=C2c3ccncc3C3=NN(c4ccccc4)C(=O)C123` (stereo not drawn), the TGI in assay [1], in assay [2], in assay [3], in assay [4], in assay [5] and in [6] was above 100 µM throughout. Also, the TGI in [7], in assay [8] and in assay [9] was above 100 µM throughout.

Turning to `Cc1csc(CP(=O)(OC(C)C)OC(C)C)n1`, the TGI in [1], in assay [2], in [3], in assay [4], in assay [5] and in assay [6] was above 100 µM each time. Moreover, the TGI in assay [7], in assay [8] and in assay [9] was above 100 µM in each case.

Turning to `O=c1[nH]nc(-c2ccccc2)c2[nH]c3c(c12)CCCc1ccccc1-3`, the TGI is 50.9 µM in [1]; 36.9 µM in assay [2]; 50.8 µM in assay [3]; 30.9 µM in assay [4]; 54.8 µM in assay [5]; above 100 µM in assay [6]. Further, the TGI in assay [7] was determined as 38.7 µM; in [8] it was 31.2 µM; in assay [9] it was 32.5 µM.

Take `CCN(CC)CCCNc1c2cc(OC)ccc2nc2cccc([N+](=O)[O-])c12`: the TGI was found to be 0.22 µM in assay [1]; 0.24 µM in [2]; 0.339 µM in assay [3]; 0.263 µM in assay [4]; 0.239 µM in [5]; 0.446 µM in assay [6]. Besides, the values for the TGI in [7], in assay [8] and in [9] were 0.448 µM, 0.418 µM and 1.51 µM, respectively.

With `COc1ccc(-c2c(C#N)c(N)n(C3OC(COC(C)=O)C(OC(C)=O)C(OC(C)=O)C3OC(C)=O)c(=S)c2C#N)cc1` (stereo not drawn), the TGI is > 100 µM and 60.9 µM in assay [1]; above 100 µM in assay [2]; above 100 µM in assay [3]; > 100 µM and 75.7 µM in assay [4]; 82.8 µM and 49.4 µM in [5]; above 100 µM in assay [6]. The TGI in assay [7] was 83 µM and > 100 µM; in [8] it was > 100 µM and 68.8 µM; in assay [9], above 100 µM. In addition, in assay [2], the GI50 was > 100 µM and 28.4 µM.

As to `O=C1CCCC1C(O)(C(F)(F)Cl)C(F)(F)Cl` (stereo not drawn), the TGI in assay [1], in assay [2], in [3], in assay [4], in [5] and in assay [6] was above 10 µM throughout. Further, the TGI in assay [7], in [8] and in [9] was above 10 µM throughout.

Consider `CCOC(=O)CCNC(=O)c1cc(C)cc2c1Oc1c(cc(C)cc1C(=O)NCCC(=O)OCC)S2`, for which the TGI in assay [1] is above 100 µM; in assay [2], above 100 µM; in assay [3], above 100 µM; in [4] it was above 100 µM; in assay [5], 87.8 µM; in [6], above 100 µM. In addition, the TGI in [7], in assay [8] and in assay [9] was above 100 µM in each case.

As to `Cc1nc2ccccc2n1Cc1ccc(NC(=S)NC2CCCCC2)cc1`, the TGI is 72.3 µM in [1]; above 100 µM in assay [2]; above 100 µM in assay [3]; above 100 µM in assay [4]; above 100 µM in assay [5]; above 92.9 µM in assay [6]. The figures for the TGI in assay [7], in [8] and in assay [9] were above 100 µM, above 66.4 µM and above 100 µM, respectively.

With `N#C[C@H](c1nc2ccccc2[nH]1)c1nc2ccccc2nc1Cl`, the TGI in assay [1] was above 100 µM; in assay [2], above 50.3 µM; in assay [3], 29.5 µM; in [4], 31.7 µM; in assay [5], above 75.6 µM; in assay [6], 30 µM. In addition, the results for the TGI in assay [7], in assay [8] and in [9] were above 100 µM, 36.7 µM and above 100 µM, respectively.

`C[C@@H](Br)[C@@H]1CC[C@H]2c3[nH]c4ccccc4c3CCN2C1`: the TGI in assay [1] is 77.6 µM; in assay [2], 44 µM; in assay [3], 70.8 µM; in assay [4] it was 40.3 µM; in [5], 65.2 µM; in [6], above 100 µM. The values for the TGI in [7], in assay [8] and in assay [9] were 33.9 µM, 37.4 µM and 47.3 µM, respectively.

For the molecule `Cc1ccc(S(=O)(=O)N/N=C2/C3CC4CCC2C4C3)cc1` (stereo not drawn), the TGI in [1], in assay [2], in assay [3], in [4], in assay [5] and in assay [6] was above 100 µM each time. Besides, the TGI in assay [7], in assay [8] and in assay [9] was above 100 µM in each case.

Take `COc1ccc(OC)c2c1-c1nnnn1CCC2(C)C`: the TGI in [1], in [2], in [3], in [4], in [5] and in assay [6] was above 100 µM throughout. The TGI in [7], in [8] and in assay [9] was above 100 µM throughout.

Consider `O=C1CSC2(CC(/C=C/c3ccccc3[N+](=O)[O-])=NN2c2cccc(S(=O)(=O)O)c2)N1c1nc2ccccc2s1` (stereo not drawn), for which the TGI in assay [1] is 26.4 µM; in [2] it was 60.7 µM; in assay [3], above 75 µM; in assay [4] it was above 75 µM; in assay [5], 56.7 µM; in [6], above 75 µM. Besides, the TGI in assay [7] was above 75 µM; in [8], 43.5 µM; in assay [9] it was 50.7 µM.

Consider `CSc1nnc2n1-c1ccccc1SCC2`, for which the TGI in assay [10], in [2], in [11], in assay [3], in assay [4] and in assay [5] was above 100 µM throughout. For the same molecule, the TGI in [6] and in [8] was above 100 µM each time.

As to `O=CN/C=C\c1cc(O)ccc1O`, the TGI was above 41.1 µM in [10]; above 50.3 µM in [2]; 28.8 µM in [11]; 25.6 µM in assay [3]; 28.9 µM in assay [4]; 28 µM in [5]. Moreover, the TGI in assay [6] stood at 32.9 µM; in assay [8] it was 44.6 µM.

Consider `C=C(C)[C@H]1C=C[C@@H](OC(C)=O)[C@@]2(COC(C)=O)[C@H](OC(=O)CCC)[C@H]3[C@@H](OC(C)=O)[C@@H](C)C[C@]3(O)C(=O)[C@@](C)(OC(C)=O)[C@H]12`, for which the TGI in [1] is above 100 µM; in assay [2], above 100 µM; in assay [3], above 100 µM; in [4] it was above 100 µM; in assay [5] it was 69.8 µM; in assay [6], above 100 µM. Besides, the TGI in assay [7] is above 100 µM; in assay [8], 66.7 µM; in assay [9], above 100 µM.
